# Patent US11384067B2, “Pyrazole n-linked carbamoyl cyclohexyl acids as LPA antagonists” (BRISTOL-MYERS SQUIBB COMPANY, priority 2017, dated 2022)
# Molecular target: T1, human LPA1 (Homo sapiens, UniProt Q92633)
# T1 construct: expressed in transfected cells; host or cells: Chinese hamster ovary (CHO) cells
# Assay: LPA1 functional antagonist assay (LPA-induced calcium flux)
# Format: cell-based
# Details: CHO cells overexpressing human LPA1, 10 nM LPA, read-out: hLPA1 IC50
# Method: The effectiveness of compounds of the present invention as LPA1 inhibitors can be determined in an LPA1 functional antagonist assay as follows:
# The cells were then equilibrated to room temperature for 30 minutes before the assay. […] IC50 values were determined by fitting data to a 4-parameter logistic equation (GraphPad Prism, San Diego Calif.).
# T1 sequence (Q92633 whole entry): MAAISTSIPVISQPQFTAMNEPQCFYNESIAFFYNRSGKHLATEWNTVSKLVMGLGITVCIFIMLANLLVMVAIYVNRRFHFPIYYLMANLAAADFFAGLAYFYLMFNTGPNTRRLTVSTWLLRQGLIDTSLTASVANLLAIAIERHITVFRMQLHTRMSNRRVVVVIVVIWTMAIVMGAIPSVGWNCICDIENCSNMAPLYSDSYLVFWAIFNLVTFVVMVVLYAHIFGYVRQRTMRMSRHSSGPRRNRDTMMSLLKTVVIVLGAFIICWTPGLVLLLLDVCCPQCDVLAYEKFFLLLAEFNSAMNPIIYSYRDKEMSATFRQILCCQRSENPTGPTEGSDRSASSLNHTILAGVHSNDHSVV
row,Structure (SMILES),IC50 [nM]
1,"CCCCOC(=O)NCc1c(-c2ccc(O[C@H]3CCC[C@H](C(=O)O)C3)c(C)n2)cnn1C [Example 1, (1S,3S)-3-((6-(5-(((Butoxycarbonyl)amino)methyl)-1-methyl-1H-pyrazol-4-yl)-2-methylpyridin-3-yl)oxy)cyclohexanecarboxylic Acid]",28
2,"CCCCOC(=O)N(C)Cc1c(-c2ccc(O[C@H]3CCC[C@H](C(=O)O)C3)c(C)n2)cnn1C [Example 2, (1S,3S)-3-((6-(5-(((Butoxycarbonyl)(methyl)amino)methyl)-1-methyl-1H-pyrazol-4-yl)-2-methylpyridin-3-yl)oxy)cyclohexanecarboxylic Acid]",49
3,"Cc1nc(-c2cnn(C)c2CNC(=O)OCc2cccc(F)c2)ccc1O[C@H]1CCC[C@H](C(=O)O)C1 [Example 4, (1S,3S)-3-((6-(5-(((((3-fluorobenzyl)oxy)carbonyl)amino)methyl)-1-methyl-1H-pyrazol-4-yl)-2-methyl-pyridin-3-yl)oxy)cyclohexane-1-carboxylic acid]",12
4,"Cc1nc(-c2cnn(C)c2CNC(=O)O[C@H](C)c2ccccc2)ccc1O[C@H]1CCC[C@H](C(=O)O)C1 [Example 5, (1S,3S)-3-((2-methyl-6-(1-methyl-5-(((((R)-1-phenylethoxy)carbonyl)amino)methyl)-1H-pyrazol-4-yl)pyridin-3-yl)oxy)cyclohexane-1-carboxylic acid]",11
5,"Cc1nc(-c2cnn(C)c2CNC(=O)OCc2cc(F)cc(F)c2)ccc1O[C@H]1CCC[C@H](C(=O)O)C1 [Example 6, (1S,3S)-3-((6-(5-(((((3,5-difluoro-benzyl)oxy)carbonyl)amino)methyl)-1-methyl-1H-pyrazol-4-yl)-2-methyl-pyridin-3-yl)oxy)cyclohexane-1-carboxylic acid]",7
6,"Cc1cccc(COC(=O)NCc2c(-c3ccc(O[C@H]4CCC[C@H](C(=O)O)C4)cn3)cnn2C)c1 [Example 7, (1S,3S)-3-((6-(1-methyl-5-(((((3-methylbenzyl)oxy)carbonyl)amino)methyl)-1H-pyrazol-4-yl)pyridin-3-yl)oxy)cyclohexane-1-carboxylic acid]",280
7,"Cn1ncc(-c2ccc(O[C@H]3CCC[C@H](C(=O)O)C3)cn2)c1CNC(=O)OCc1cc(F)cc(F)c1 [Example 8, (1S,3S)-3-((6-(5-(((((3,5-difluoro-benzyl)oxy)carbonyl)amino)methyl)-1-methyl-1H-pyrazol-4-yl)pyridin-3-yl)oxy)cyclohexane-1-carboxylic acid]",111
8,"Cn1ncc(-c2ccc(O[C@H]3CCC[C@H](C(=O)O)C3)cn2)c1CNC(=O)OCc1cc(F)ccc1F [Example 9, (1S,3S)-3-((6-(5-(((((2,5-difluoro-benzyl)oxy)carbonyl)amino)methyl)-1-methyl-1H-pyrazol-4-yl)pyridin-3-yl)oxy)cyclohexane-1-carboxylic acid]",71
9,"CN(Cc1c(-c2ccc(O[C@H]3CCC[C@H](C(=O)O)C3)cn2)cnn1C)C(=O)OCc1cc(F)ccc1F [Example 10, (1S,3S)-3-((6-(5-(((((2,5-difluoro-benzyl)oxy)carbonyl)(methyl)amino)methyl)-1-methyl-1H-pyrazol-4-yl)pyridin-3-yl)oxy)cyclohexane-1-carboxylic acid]",1660
10,"CCCCCOC(=O)NCc1c(-c2ccc(O[C@H]3CCC[C@H](C(=O)O)C3)cn2)cnn1C [Example 12, (1S,3S)-3-((6-(1-methyl-5-((((pentyl-oxy)carbonyl)amino)methyl)-1H-pyrazol-4-yl)pyridin-3-yl)oxy)cyclohexane-1-carboxylic acid]",16
11,"CCCCCCOC(=O)NCc1c(-c2ccc(O[C@H]3CCC[C@H](C(=O)O)C3)cn2)cnn1C [Example 13, (1S,3S)-3-((6-(5-((((hexyloxy)carbonyl)amino)methyl)-1-methyl-1H-pyrazol-4-yl)pyridin-3-yl)oxy)cyclohexane-1-carboxylic acid]",834
12,"Cn1ncc(-c2ccc(O[C@H]3CCC[C@H](C(=O)O)C3)cn2)c1CNC(=O)OCC(C)(C)C [Example 14, (1S,3S)-3-((6-(1-methyl-5-((((neo-pentyloxy)carbonyl)amino)methyl)-1H-pyrazol-4-yl)pyridin-3-yl)oxy)cyclohexane-carboxylic acid]",207
13,"Cc1cccc(COC(=O)NCc2c(-c3ccc(O[C@H]4CCC[C@H](C(=O)O)C4)c(C)n3)cnn2C)c1 [Example 15, (1S,3S)-3-((2-methyl-6-(1-methyl-5-(((((3-methylbenzyl)oxy)carbonyl)amino)methyl)-1H-pyrazol-4-yl)pyridin-3-yl)oxy)cyclohexane-1-carboxylic acid]",2
14,"C[C@@H](OC(=O)NCc1c(-c2ccc(O[C@H]3CCC[C@H](C(=O)O)C3)cn2)cnn1C)c1ccccc1 [Example 16, (1S,3S)-3-((6-(1-methyl-5-(((((R)-1-phenylethoxy)carbonyl)amino)methyl)-1H-pyrazol-4-yl)pyridin-3-yl)oxy)cyclohexane-1-carboxylic acid]",23
15,"CC(C)COC(=O)NCc1c(-c2ccc(O[C@H]3CCC[C@H](C(=O)O)C3)cn2)cnn1C [Example 17, (1S,3S)-3-((6-(5-(((isobutoxy-carbonyl)amino)methyl)-1-methyl-1H-pyrazol-4-yl)pyridin-3-yl)oxy)cyclohexane-1-carboxylic acid]",1640
16,"CCCCOC(=O)NCc1c(-c2ccc(O[C@H]3CCC[C@H](C(=O)O)C3)cn2)cnn1C [Example 18, (1S,3S)-3-((6-(5-(((butoxycarbonyl)amino)methyl)-1-methyl-1H-pyrazol-4-yl)pyridin-3-yl)oxy)cyclohexane-1-carboxylic acid]",325
17,"CCCCCOC(=O)NCc1c(-c2ccc(O[C@H]3CCC[C@H](C(=O)O)C3)c(C)n2)cnn1C [Example 19, (1S,3S)-3-((2-methyl-6-(1-methyl-5-((((pentyloxy)carbonyl)amino)methyl)-1H-pyrazol-4-yl)pyridin-3-yl)oxy)cyclohexane-1-carboxylic acid]",4
18,"CCCOC(=O)NCc1c(-c2ccc(O[C@H]3CCC[C@H](C(=O)O)C3)c(C)n2)cnn1C [Example 20, (1S,3S)-3-((2-methyl-6-(1-methyl-5-(((propoxycarbonyl)amino)methyl)-1H-pyrazol-4-yl)pyridin-3-yl)oxy)cyclohexane-1-carboxylic acid]",275
19,"Cc1cccc(COC(=O)NCc2c(-c3ccc(O[C@H]4CCC[C@H](C(=O)O)C4)cn3)cnn2C)c1 [Example 21, (1S,3S)-3-((6-(1-methyl-5-(((((3-methylbenzyl)oxy)carbonyl)amino)methyl)-1H-pyrazol-4-yl)pyridin-3-yl)oxy)cyclohexane-1-carboxylic acid]",182
20,"Cn1ncc(-c2ccc(O[C@H]3CCC[C@H](C(=O)O)C3)cn2)c1CNC(=O)OCCc1ccccc1 [Example 22, (1S,3S)-3-((6-(1-methyl-5-(((phen-ethoxycarbonyl)amino)methyl)-1H-pyrazol-4-yl)pyridin-3-yl)oxy)cyclohexane-1-carboxylic acid]",355
21,"CCCCOC(=O)N(C)Cc1c(-c2ccc(O[C@H]3CCC[C@H](C(=O)O)C3)cn2)cnn1C [Example 23, (1S,3S)-3-((6-(5-(((butoxycarbonyl)(methyl)amino)methyl)-1-methyl-1H-pyrazol-4-yl)pyridin-3-yl)oxy)cyclohexane-1-carboxylic acid]",243
22,"CN(Cc1c(-c2ccc(O[C@H]3CCC[C@H](C(=O)O)C3)cn2)cnn1C)C(=O)OCc1ccccc1 [Example 24, (1S,3S)-3-((6-(5-((((benzyloxy)carbonyl)(methyl)amino)methyl)-1-methyl-1H-pyrazol-4-yl)pyridin-3-yl)oxy)cyclohexane-1-carboxylic acid]",204
23,"Cn1ncc(-c2ccc(O[C@H]3CCC[C@H](C(=O)O)C3)cn2)c1CNC(=O)OCc1ccccc1 [Example 25, (1S,3S)-3-((6-(5-((((benzyloxy)carbonyl)amino)methyl)-1-methyl-1H-pyrazol-4-yl)pyridin-3-yl)oxy)cyclohexane-1-carboxylic acid]",20
24,CCCCCCOC(=O)NCc1c(-c2ccc(O[C@H]3CCC[C@H](C(=O)O)C3)c(C)n2)cnn1C [Example 26],14
25,Cc1nc(-c2cnn(C)c2CNC(=O)OCC(C)(C)C)ccc1O[C@H]1CCC[C@H](C(=O)O)C1 [Example 27],22
26,"Cc1nc(-c2cnn(C)c2CNC(=O)OCC(C)C)ccc1O[C@H]1CCC[C@H](C(=O)O)C1 [Example 28, (1S,3S)-3-((6-(5-(((isobutoxy-carbonyl)amino)methyl)-1-methyl-1H-pyrazol-4-yl)-2-methylpyridin-3-yl)oxy)cyclohexane-1-carboxylic acid]",29
27,"Cc1nc(-c2cnn(C)c2CNC(=O)OCC(C)C)cnc1O[C@H]1CCC[C@H](C(=O)O)C1 [Example 29, (1S,3S)-3-((5-(5-(((isobutoxy-carbonyl)amino)methyl)-1-methyl-1H-pyrazol-4-yl)-3-methylpyrazin-2-yl)oxy)cyclohexane-1-carboxylic acid]",1200
28,"CCCCOC(=O)NCc1c(-c2cnc(O[C@H]3CCC[C@H](C(=O)O)C3)c(C)n2)cnn1C [Example 30, (1S,3S)-3-((5-(5-(((butoxycarbonyl)amino)methyl)-1-methyl-1H-pyrazol-4-yl)-3-methylpyrazin-2-yl)oxy)cyclohexane-1-carboxylic acid]",283
29,"Cc1nc(-c2cnn(C)c2CNC(=O)OCc2ccccc2)cnc1O[C@H]1CCC[C@H](C(=O)O)C1 [Example 31, (1S,3S)-3-((5-(5-((((benzyloxy)carbonyl)amino)methyl)-1-methyl-1H-pyrazol-4-yl)-3-methylpyrazin-2-yl)oxy)cyclohexane-1-carboxylic acid]",29
30,"Cc1nc(-c2cnn(C)c2CN(C)C(=O)OCc2ccccc2)ccc1O[C@H]1CCC[C@H](C(=O)O)C1 [Example 32, (1S,3S)-3-((6-(5-((((benzyloxy)carbonyl)(methyl)amino)methyl)-1-methyl-1H-pyrazol-4-yl)-2-methyl-pyridin-3-yl)oxy)cyclohexane-1-carboxylic acid]",211
